Source: article PMC4003287, “Fast and economic immobilization methods described for non-commercial Pseudomonas lipases” (BMC Biotechnology, 2014)

Assays:
[1] = biological target: T1, LipC (Pseudomonas sp. 42A2, UniProt B3GVV9); experiment: transesterification to FAMEs, TLC, immobilized crude enzyme; assay type: biochemical; conditions: methanol 15% w/w, water 10% w/w, room temperature, 24 h; triolein of 65% purity (with di- and monolein); FAMEs seen with EP100 and MP1000 preparations
T1 construct: secreted lipase, co-expressed with foldase gene lipH of 42A2 in pBBR1MCS, host P. aeruginosa PABST7.1 (PAO1 lipA lipH deletion); crude culture supernatant, adsorbed on EP100, MP1000 or Celite 545
T1 sequence (B3GVV9 24-309): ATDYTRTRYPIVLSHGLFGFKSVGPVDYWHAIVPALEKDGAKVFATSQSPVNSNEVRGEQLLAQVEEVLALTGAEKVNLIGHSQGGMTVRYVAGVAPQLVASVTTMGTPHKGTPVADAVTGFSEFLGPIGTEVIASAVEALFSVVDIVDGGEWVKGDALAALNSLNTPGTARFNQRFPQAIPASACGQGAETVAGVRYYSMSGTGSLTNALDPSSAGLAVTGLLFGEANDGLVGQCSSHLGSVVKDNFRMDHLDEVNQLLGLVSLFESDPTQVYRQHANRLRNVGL

[2] = biological target: T2, LipA (Pseudomonas sp. 42A2, UniProt B3GVV8); experiment: as above; assay type: biochemical; conditions: methanol 15% w/w, water 10% w/w, 30°C, 24 h; triolein of 65% purity (with di- and monolein); FAMEs seen with EP100 and Celite 545 preparations
T2 construct: secreted lipase, co-expressed with foldase gene lipH of 42A2 in pBBR1MCS, host P. aeruginosa PABST7.1 (PAO1 lipA lipH deletion); crude culture supernatant, adsorbed on EP100, MP1000 or Celite 545
T2 sequence (B3GVV8 27-311): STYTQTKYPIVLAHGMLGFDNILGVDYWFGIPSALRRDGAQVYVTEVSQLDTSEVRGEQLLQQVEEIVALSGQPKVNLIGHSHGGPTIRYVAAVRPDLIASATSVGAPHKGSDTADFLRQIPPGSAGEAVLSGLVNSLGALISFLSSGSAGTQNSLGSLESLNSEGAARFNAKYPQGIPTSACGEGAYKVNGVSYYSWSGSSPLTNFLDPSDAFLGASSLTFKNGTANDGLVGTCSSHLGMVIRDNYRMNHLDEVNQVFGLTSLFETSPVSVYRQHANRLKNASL

Q: Which “transesterification to FAMEs, TLC, immobilized crude enzyme” value [1] does the source give for `CCCCCCCC/C=C\CCCCCCCC(=O)OCC(COC(=O)CCCCCCC/C=C\CCCCCCCC)OC(=O)CCCCCCC/C=C\CCCCCCCC` [triolein] here?
A: LipA, LipC and LipCmut produced a visible FAMEs spot when analyzed by TLC

Q: And the “transesterification to FAMEs, TLC, immobilized crude enzyme” value [2]?
A: LipA, LipC and LipCmut produced a visible FAMEs spot when analyzed by TLC
